Experimental data published in US20210348164A1, “ENDOGENOUS CYTOPLASMIC ALU COMPLEMENTARY DNA IN AGE-RELATED MACULAR DEGENERATION” (University of Virginia Patent Foundation, priority 2018, published 2021).

Test system: L1 ORF2 reverse transcriptase activity
Experiment: Alu cDNA formation in Oryzomys RPE cells with enforced L1 ORF2 expression (Alu-specific qPCR of cytoplasmic fractions)
Assay type: cell-based, rat L1 ORF2 in Oryzomys palustris RPE cells
Conditions: high-dose
Description: Subretinal and intravitreous injections. Subretinal injections (1 μl for mice, 3 μl for rat) or intravitreous injections (0.5 μl for mice, 2 μl for rat) in mice or rat were performed using a 35-gauge needle (Ito Co. Fuji, Japan). In vivo transfection of Alu RNA or mutant Alu RNA (3.6-300 ng per eye); Alu complementary DNA (cDNA; 0.0036-90 ng per eye); Alu reverse sequence cDNA (3.6-90 ng per eye); or 7SL cDNA (3.6-90 ng per eye) was performed using 10% NEUROPORTER™ transfection reagent (Genlantis, San Diego, Calif., United States of America) as previously described (Kaneko et al., 2011; Tarallo et al., 2012). 3TC, TM-3TC, Cpep-3TC, Cpep, PA-4 3TC, EFV, DLV, or NVP (50 μM/1 μl or 500 μM/1 μl) were administered by intravitreous injection (Mandal et al., 2011; Nasrolahi et al., 2013). […]
Alu cDNA detection by real-time PCR. […] Then samples were directly amplified by real-time quantitative PCR (7900 HT Fast Real-Time PCR system, Applied Biosystems, Foster City, Calif., United States of America) with Power SYBR Green Master Mix. […] The copy number of Alu cDNA was calculated using standard curves that were obtained using serial dilutions of the plasmids containing an Alu Y sequence. […]

O=C1Nc2ccc(Cl)cc2[C@@](C#CC2CC2)(C(F)(F)F)O1 [EFV, efavirenz]
Formation of Alu cDNA following Alu RNA transfection: inhibited
